Experimental data reported in BigSolDB 2.1.

NC(=O)Nc1ccccc1
solubility (mole fraction)
Details	283.15 K	288.15 K	293.15 K	298.15 K	303.15 K	308.15 K	313.15 K	318.15 K	323.15 K
in 1,2-dichloroethane	0.000433	0.000528	0.000706	0.000952	0.0012	0.00151	0.002	0.00257	0.00315
in 1,4-dioxane	–	0.0128	0.0152	0.0183	0.022	0.0276	0.0348	0.0433	0.0525
in DMF	0.205	0.212	0.22	0.229	0.24	0.253	0.266	0.282	0.3
in DMSO	–	–	0.192	0.199	0.207	0.217	0.229	0.244	0.262
in NMP	0.0457	0.0517	0.0596	0.0686	0.0787	0.0898	0.101	0.115	0.13
in acetonitrile	0.00622	0.00731	0.00867	0.0106	0.0135	0.0177	0.0221	0.0264	0.0318
in ethanol	0.0236	0.0272	0.0322	0.0383	0.0459	0.0525	0.0612	0.072	0.082
in ethyl acetate	0.0147	0.0176	0.0209	0.0257	0.0309	0.0384	0.0461	0.0549	0.0643
in ethylene glycol	0.0338	0.039	0.0448	0.0517	0.0595	0.0681	0.0774	0.0882	0.101
in isopropanol	0.00903	0.0108	0.0132	0.0164	0.0198	0.0253	0.0321	0.0392	0.0472
in methanol	0.0265	0.0305	0.036	0.0421	0.0495	0.0578	0.0672	0.0774	0.0888
in n-propanol	0.02	0.0235	0.0281	0.0334	0.0394	0.0458	0.0539	0.0629	0.0723
in water	0.000409	0.000513	0.000649	0.000828	0.00102	0.00124	0.0015	0.0018	0.00208
